Results published in patent publication US20190022135A1, “TREATMENT FOR CHITIN-CONTAINING MICROORGANISMS” (Benchmark Animal Health Limited, priority 2016, published 2019).

What was measured:
Saprolegnia spores = assay: Saprolegnia spore viability in biofilms (CellTiter 96 MTS assay); type: cell-based; conditions: 4 h
Procedure: The effect of treating Saprolegnia-spores with combinations of boric acid and propionic acid was investigated in biofilm preparations since this is one of the most challenging conditions under which effects can be tested.
Spores were produced to form biofilms. Saprolegnia hyphae were excised from GY agar plates and then incubated in GY broth (15±1° C., 2 days), giving additional hyphal growth. Young hyphae were washed in SAW, transferred to two glass bottles containing one liter of SAW and incubated at 21±1° C. (24 h) to allow zoospore production. Suspensions of zoospores were filtered (tea filter, 0.5 mm pores) resulting in zoospore encystment. Cysts were counted by hemocytometer, the cyst suspensions were adjusted to 1.0±104 spores/L. The suspension was then used in the biofilm formation studies (chambered cover glass system) within 3 h of counting.
Treatment with BA and/or PA was for 4 hours in stagnate, aerated water after which the water circulation was resumed. Biofilm preparations were tested for viability as described (Ali et al. 2014). In brief, CellTiter 96 aqueous one solution cell proliferation assay (Promega) was used. The test is based on tetrazolium compound [3-(4,5-dimethylthiazol-2-yl)-5-(3-carboxy-methoxyphenyl)-2-(4-sulfophenyl)-2H-tetrazolium, inner salt; MTS] being reduced by viable cells resulting in the formation of formazan products from MTS. The reaction is based on mitochondrial enzymes being active (dehydrogenase) (Lopes et al. 2013), and is an indicator of metabolic rate of the mitochondria.
Tests were run in 72-well plates with biofilm formed in the wells. BA and/or PA was then added to each tested well (except controls) at increasing concentrations, 1-4 g/L for BA and 31.4 to 125.6 mM/L for PA. Bronopol was used as a positive treatment but at 300 mg/L concentration, and SAW as negative control. Wells with the MTS reagent without spores were used as a background control. The plates were incubated at 15-20° C. Reading was done following 4 h incubation of BA and PA. Formazan product was measured at 490 nm. MTS reduction is proportional to the number and activity of live spores. Spore viability was calculated by: % viability=100×(OD490 value for the sample−mean background OD490)/(mean OD490 for non-treated water control−mean background OD490).

Saprolegnia sp. = assay: Effect on Saprolegnia zoospores, spores and hyphae (stated finding)
sea lice = assay: In vivo studies: number of attached sea lice after treatment; conditions: 2.75 ppm/L PA only, 15 min exposure, 4 days post treatment
Procedure: Water salinity: […]; Temperature: 8.5° C.; Oxygen: minimum 8 mg/L in water during treatment (8-10 mg/L measured).

[1] = test system: eggs and/or fry of Atlantic salmon; conditions: 50 mg/L treatment for 1 h; cited from earlier work

SMILES: OB(O)O [BA, boric acid]
- viability (OD value) (Saprolegnia spores; BA from 1 g/L up to 4 g/L, biofilm): declining viability
- effect on zoospore production and release and on zoosporangia (Saprolegnia sp.): interferes with the production and subsequent release of zoospores

SMILES: CCC(=O)O [PA, propionic acid]
- viability (OD value) (Saprolegnia spores; PA 4 ml added (equivalent to 125.6 mM/L), biofilm): lower OD value
- viability, statistical evaluation against 4 g/L of BA (Saprolegnia spores; PA (4 ml)): significantly lower viability
- reduction of the number of attached sea lice (sea lice): Reduced the number of attached sea lice by 30%
- effect on spores and hyphae (Saprolegnia sp.): direct toxic effect

SMILES: O=[N+]([O-])C(Br)(CO)CO [Pyzece, Bronopol]
- viability level (OD value) (Saprolegnia spores; 300 mg/L, biofilm, compared with BA and PA combination (approx. 0.3)): same viability level
- egg toxicity [1]: egg mortality
